Results taken from PMC7830743 (Journal of medicinal chemistry, 2020).
“Also recorded” adds a separate entry of the source.

Columns and labels:
Kinetic solubility assay = format: physicochemical; settings: PBS buffer
[1] = Mouse pharmacokinetic studies; format: in vivo, CD1 mice; settings: male, CD1, mouse, plasma, iv, 10 mg/kg
[2] = tested on: tumor LDH activity (A673 flank xenograft); assay: In vivo LDHA activity in A673 xenograft tumor mouse model; settings: single IV 50 mg/kg, A673 xenograft mice
LDHA = LDHA (Homo sapiens, UniProt P00338); assay: Biochemical LDHA inhibition assay
A673 cells [3] = assay: Cellular lactate production assay in A673 cells; format: cell-based, human; settings: Homo sapiens, A673, 0.5 h, read-out: A673 cells lactate inh. IC50
A673 cells [4] = assay: Cytotoxicity assay in A673 cells; format: cell-based, human; settings: Homo sapiens, A673, 48 h, read-out: A673 cells Cytotox. IC50
MiaPaCa-2 cells [5] = assay: Cellular lactate production assay in MiaPaCa-2 cells; format: cell-based; settings: Homo sapiens, MIA PaCa-2, 0.5 h, read-out: MiaPaCa-2 cells lactate inh. IC50
MiaPaCa-2 cells [6] = assay: Cytotoxicity assay in MiaPaCa-2 cells; format: cell-based; settings: Homo sapiens, MIA PaCa-2, 48 h, read-out: MiaPaCa-2 cells Cytotox. IC50
[7] = biological target: LDHA with C-terminal HiBiT fusion tag (Homo sapiens, UniProt P00338); assay: SplitLuc CETSA; format: cell-based
[8] = Liver cytosolic stability; format: in vitro ADME, and rat; settings: human, mouse, rat, liver cytosol
[9] = Metabolic stability in hepatocytes; format: in vitro ADME, and mouse; settings: rat, dog, mouse
[10] = BBB-PAMPA permeability assay; format: in vitro ADME; settings: pH 7.4
CYP450 2C8 = biological target: T1, CYP450 2C8 (Homo sapiens, UniProt P10632); assay: CYP450 inhibition, 2C8; format: in vitro ADME
T1 sequence (P10632 1-490): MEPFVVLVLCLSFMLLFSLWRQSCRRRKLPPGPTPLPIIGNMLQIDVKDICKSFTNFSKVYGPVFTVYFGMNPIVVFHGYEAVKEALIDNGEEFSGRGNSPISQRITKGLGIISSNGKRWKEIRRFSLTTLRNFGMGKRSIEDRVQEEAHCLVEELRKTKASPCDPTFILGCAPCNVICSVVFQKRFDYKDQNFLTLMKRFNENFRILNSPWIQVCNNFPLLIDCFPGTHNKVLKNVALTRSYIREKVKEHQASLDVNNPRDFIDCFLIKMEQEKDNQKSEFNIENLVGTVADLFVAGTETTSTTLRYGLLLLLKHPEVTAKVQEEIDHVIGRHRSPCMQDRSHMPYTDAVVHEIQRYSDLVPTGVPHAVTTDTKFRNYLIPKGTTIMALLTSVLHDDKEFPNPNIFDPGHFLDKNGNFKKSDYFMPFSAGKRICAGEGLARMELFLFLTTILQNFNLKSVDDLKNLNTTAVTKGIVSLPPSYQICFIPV

CYP450 2B6 = biological target: T2, CYP450 2B6 (Homo sapiens, UniProt P20813); assay: CYP450 inhibition, 2B6; format: in vitro ADME
T2 sequence (P20813 1-491): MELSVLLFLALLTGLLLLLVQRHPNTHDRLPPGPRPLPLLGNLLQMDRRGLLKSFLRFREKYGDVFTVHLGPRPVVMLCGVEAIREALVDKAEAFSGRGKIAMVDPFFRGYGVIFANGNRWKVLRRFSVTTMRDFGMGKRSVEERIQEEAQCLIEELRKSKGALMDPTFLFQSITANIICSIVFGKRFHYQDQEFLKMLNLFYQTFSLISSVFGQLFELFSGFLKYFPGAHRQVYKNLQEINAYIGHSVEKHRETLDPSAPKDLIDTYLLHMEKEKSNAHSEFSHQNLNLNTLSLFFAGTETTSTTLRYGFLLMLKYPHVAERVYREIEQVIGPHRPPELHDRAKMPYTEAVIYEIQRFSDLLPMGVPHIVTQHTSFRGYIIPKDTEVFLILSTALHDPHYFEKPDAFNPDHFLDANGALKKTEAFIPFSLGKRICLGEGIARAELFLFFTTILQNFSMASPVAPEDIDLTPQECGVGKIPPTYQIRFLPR

Metabolite ID = format: in vitro ADME; settings: also in the presence of GSH
CYP = CYP induction; format: in vitro ADME; settings: at 10 μM
[11] = RLM stability assay, single time point; settings: single-point (15 min) measurement; >30 min is highest estimable

aq solubility at pH 7.4 (Kinetic solubility assay)	SMILES	IC50 (LDHA)	IC50 (A673 cells [3])	IC50 (A673 cells [4])	IC50 (MiaPaCa-2 cells [5])	IC50 (MiaPaCa-2 cells [6])	IC50 [7]	other results
significantly diminished	Cc1cnc(C#Cc2cc(-c3nn(-c4nc(C(=O)O)cs4)c(CC4CC4)c3Cc3ccc(S(N)(=O)=O)c(F)c3)ccc2F)s1 [Compound 47, 2-(5-(Cyclopropylmethyl)-3-(4-fluoro-3-((5-methylthiazol-2-yl)-ethynyl)phenyl)-4-(3-fluoro-4-sulfamoylbenzyl)-1H-pyrazol-1-yl)-thiazole-4-carboxylic Acid]							clearance at 24 h [1]: 128 mL/min/kg; effect on LDH activity in tumors (in words) [2]: less effects
	Cc1ccc(C#Cc2cccc(-c3nn(-c4nc(C(=O)O)cs4)c(CC4CC4)c3Cc3ccc(S(N)(=O)=O)c(F)c3)c2)s1 [Compound 52, 2-(5-(Cyclopropylmethyl)-4-(3-fluoro-4-sulfamoylbenzyl)-3-(3((5-methylthiophen-2-yl)-ethynyl)phenyl)-1H-pyrazol-1-yl)thiazole4-carboxylic Acid]							half-life [8]: > 2 h; half-life [9]: > 2.5 h; PAMPA-BBB permeability [10]: low permeability; IC50 (CYP450 2C8): 7500 nM; IC50 (CYP450 2B6): 14000 nM; metabolite ID (in vitro) (Metabolite ID): no significant phase I or II metabolites; CYP induction (CYP): no induction at 10 μM; Ames (Ames assay): not active; also recorded: negative; clearance at 24 h [1]: 10.4 mL/min/kg; effect on LDH activity in tumors (in words) [2]: significantly reduced
significantly diminished	Cc1nc(C#Cc2cccc(-c3nn(-c4nc(C(=O)O)cs4)c(CC4CC4)c3Cc3ccc(S(N)(=O)=O)c(F)c3)c2)cs1 [Compound 65, 2-(5-(Cyclopropylmethyl)-4-(3-fluoro-4-sulfamoylbenzyl)-3-(3-((2-methylthiazol-4-yl)ethynyl)phenyl)-1H-pyrazol-1-yl)thiazole-4-carboxylic Acid]							
	CCCCC#Cc1cc(-c2nn(-c3nc(C(=O)O)cs3)c(CC3CC3)c2Cc2ccc(S(N)(=O)=O)c(F)c2)ccc1F [Compound 15, 2-(5-(Cyclopropylmethyl)-3-(4-fluoro-3-(hex-1-yn-1-yl)phenyl)-4-(3-fluoro-4-sulfamoylbenzyl)-1H-pyrazol-1-yl)thiazole-4-carboxylic Acid]							RLM stability T1/2 [11]: metabolized quickly
	CCCC#Cc1cc(-c2nn(-c3nc(C(=O)O)cs3)c(CC3CC3)c2Cc2ccc(S(N)(=O)=O)c(F)c2)ccc1F [Compound 14, 2-(5-(Cyclopropylmethyl)-3-(4-fluoro-3-(pent-1-yn-1-yl)phenyl)-4-(3-fluoro-4-sulfamoylbenzyl)-1H-pyrazol-1-yl)thiazole-4-carboxylic Acid]							effect on LDH activity in tumors (in words) [2]: less effects; RLM stability T1/2 [11]: metabolized quickly
significantly diminished	Cc1cnc(C#Cc2cccc(-c3nn(-c4nc(C(=O)O)cs4)c(CCC4CC4)c3Cc3ccc(S(N)(=O)=O)c(F)c3)c2)s1 [Compound 80, 2-(5-(2-Cyclopropylethyl)-4-(3-fluoro-4-sulfamoylbenzyl)-3-(3((5-methylthiazol-2-yl)ethynyl)phenyl)-1H-pyrazol-1-yl)thiazole-4-carboxylic Acid]							
significantly diminished	NS(=O)(=O)c1ccc(Cc2c(-c3ccc(F)c(C#CCN4CCCC4)c3)nn(-c3nc(C(=O)O)cs3)c2CC2CC2)cc1F [Compound 39, 2-(5-(Cyclopropylmethyl)-3-(4-fluoro-3-(3-(pyrrolidin-1-yl)prop-1-yn-1-yl)phenyl)-4-(3-fluoro-4-sulfamoylbenzyl)-1H-pyrazol-1-yl)-thiazole-4-carboxylic Acid]							
	NS(=O)(=O)c1ccc(Cc2c(-c3ccc(F)c(C#CC4(F)CCCC4)c3)nn(-c3nc(C(=O)O)cs3)c2CC2CC2)cc1F [Compound 24, 2-(5-(Cyclopropylmethyl)-3-(4-fluoro-3-((1-fluorocyclopentyl)-ethynyl)phenyl)-4-(3-fluoro-4-sulfamoylbenzyl)-1H-pyrazol-1-yl)-thiazole-4-carboxylic Acid]	33 nM	450 nM	689 nM	454 nM	593 nM	95 nM	
	NS(=O)(=O)c1ccc(Cc2c(-c3ccc(F)c(C#CC4(O)CCCC4)c3)nn(-c3nc(C(=O)O)cs3)c2CC2CC2)cc1F [Compound 25, 2-(5-(Cyclopropylmethyl)-3-(4-fluoro-3-((1-hydroxycyclopentyl)-ethynyl)phenyl)-4-(3-fluoro-4-sulfamoylbenzyl)-1H-pyrazol-1-yl)-thiazole-4-carboxylic Acid]	7 nM	1930 nM	2190 nM	1480 nM	2180 nM	150 nM	

SMILES	aq solubility at pH 7.4 (Kinetic solubility assay)	IC50 (LDHA)	IC50 (A673 cells [3])	IC50 (A673 cells [4])	IC50 (MiaPaCa-2 cells [5])	IC50 (MiaPaCa-2 cells [6])	IC50 [7]	other results
CC1(C#Cc2cc(-c3nn(-c4nc(C(=O)O)cs4)c(CC4CC4)c3Cc3ccc(S(N)(=O)=O)c(F)c3)ccc2F)COC1 [Compound 26, 2-(5-(Cyclopropylmethyl)-3-(4-fluoro-3-((3-methyloxetan-3-yl)-ethynyl)phenyl)-4-(3-fluoro-4-sulfamoylbenzyl)-1H-pyrazol-1-yl)-thiazole-4-carboxylic Acid]	significantly diminished	10 nM	1050 nM	1180 nM	898 nM	1240 nM	84 nM	
NS(=O)(=O)c1ccc(Cc2c(-c3ccc(F)c(C#CC4(F)CCOC4)c3)nn(-c3nc(C(=O)O)cs3)c2CC2CC2)cc1F (stereo not shown) [Compound 30, 2-(5-(Cyclopropylmethyl)-3-(4-fluoro-3-((3-fluorotetrahydrofuran-3-yl)ethynyl)phenyl)-4-(3-fluoro-4-sulfamoylbenzyl)-1H-pyrazol-1-yl)thiazole-4-carboxylic Acid]	significantly diminished	1 nM	1060 nM	1050 nM	867 nM	882 nM	201 nM	
Cn1cncc1C#Cc1cc(-c2nn(-c3nc(C(=O)O)cs3)c(CC3CC3)c2Cc2ccc(S(N)(=O)=O)c(F)c2)ccc1F [Compound 48, 2-(5-(Cyclopropylmethyl)-3-(4-fluoro-3-((1-methyl-1H-imidazole-5-yl)ethynyl)phenyl)-4-(3-fluoro-4-sulfamoylbenzyl)-1H-pyrazol-1-yl)thiazole-4-carboxylic Acid]	significantly diminished							
